Measurements from patent publication US20100022521A1, “COMPOUNDS” (Hansa Metallwerke AG, priority 2005, published 2010).

Key:
[1] = target: mGluR5 (UniProt P31424); assay: MGluR5 receptor binding test ([3H]-M-MPEP displacement); design: species or system rat; conditions: radioligand [3H]-M-MPEP (2 nM); species not given; read-out: mGlu5 Ki
Method: MGluR5 Receptor Binding Tests
Rat cerebro-cortical membrane preparation was used to determine the binding characteristics of reference compounds and novel compounds to the rat mGluR5. The A18 cell line expressing hmGluR5a (purchased from Euroscreen) was used to determine binding characteristics of the chemical compounds to the human mGluR5a receptor. As radioligand [3H]-M-MPEP (2 nM) was used. The nonspecific binding was determined in the presence of 10 μM M-MPEP.

[2] = target: T1, rat mGluR1 (Rattus norvegicus, UniProt P23385); assay: MGluR1 receptor binding test ([3H]R214127 displacement); conditions: rat cerebellar membrane; radioligand [3H]R214127 (3 nM); read-out: mGlu1 Ki
T1 construct: rat cerebellar membrane preparation was used; from tissue; host or cells: rat cerebellum (membrane preparation)
Method: MGluR1 Receptor Binding Test
MGluR1 receptor binding testes were performed according to modified method of Lavreysen et al. (Mol. Pharm., 2003, 63, 1082). Based on the high homology between the human and rat mGluR1 receptors, rat cerebellar membrane preparation was used to determine the binding characteristics of reference compounds and novel compounds to the rat mGluR1. As radioligand [3H]R214127 (3 nM) was used and the nonspecific binding was determined in the presence of 1 μM of R214127.
IC-50 values were determined from displacement curves by nonlinear regression analysis and were converted by equation method of Cheng and Prusoff (Biochem. Pharmacol., 1973, 22, 3099) to Ki values.

T1 sequence (P23385 19-1199): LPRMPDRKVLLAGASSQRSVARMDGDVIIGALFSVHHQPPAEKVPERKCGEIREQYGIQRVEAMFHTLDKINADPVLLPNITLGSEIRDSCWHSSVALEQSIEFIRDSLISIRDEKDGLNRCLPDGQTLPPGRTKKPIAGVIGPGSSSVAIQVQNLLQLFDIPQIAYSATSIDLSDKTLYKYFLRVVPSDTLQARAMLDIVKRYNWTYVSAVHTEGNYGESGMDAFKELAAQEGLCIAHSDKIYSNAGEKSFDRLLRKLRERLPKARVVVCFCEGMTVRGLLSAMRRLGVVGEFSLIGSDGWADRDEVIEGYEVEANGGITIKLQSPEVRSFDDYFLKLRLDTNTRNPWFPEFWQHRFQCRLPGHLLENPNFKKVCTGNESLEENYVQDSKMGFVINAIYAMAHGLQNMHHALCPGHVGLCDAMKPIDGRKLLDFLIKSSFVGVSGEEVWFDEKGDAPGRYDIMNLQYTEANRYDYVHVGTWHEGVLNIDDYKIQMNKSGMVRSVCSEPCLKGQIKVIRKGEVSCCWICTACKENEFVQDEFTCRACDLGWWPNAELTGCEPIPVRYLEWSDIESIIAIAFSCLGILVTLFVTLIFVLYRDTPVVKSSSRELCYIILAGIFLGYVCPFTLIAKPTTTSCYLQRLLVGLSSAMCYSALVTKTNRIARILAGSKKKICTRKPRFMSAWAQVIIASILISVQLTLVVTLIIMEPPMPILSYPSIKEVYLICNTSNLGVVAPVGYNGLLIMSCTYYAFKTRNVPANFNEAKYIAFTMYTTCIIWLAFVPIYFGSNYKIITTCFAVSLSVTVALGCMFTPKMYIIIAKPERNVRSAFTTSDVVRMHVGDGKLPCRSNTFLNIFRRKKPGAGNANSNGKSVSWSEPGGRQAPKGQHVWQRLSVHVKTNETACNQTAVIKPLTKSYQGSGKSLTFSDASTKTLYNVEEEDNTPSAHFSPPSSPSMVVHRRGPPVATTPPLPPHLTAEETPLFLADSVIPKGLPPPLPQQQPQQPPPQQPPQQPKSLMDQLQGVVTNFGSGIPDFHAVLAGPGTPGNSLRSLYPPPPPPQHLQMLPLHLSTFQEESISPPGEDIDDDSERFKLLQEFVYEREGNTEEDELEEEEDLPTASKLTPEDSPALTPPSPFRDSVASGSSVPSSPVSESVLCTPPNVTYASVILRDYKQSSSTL

| Structure (SMILES) | Ki [1] [nM] | Ki [2] [nM] |
| --- | --- | --- |
| Cc1ccc(S(=O)(=O)c2sc3nc(F)ccc3c2-c2ccc(Cl)cc2)cc1F [Compound 89] | < 500 | > 1500 |
| O=S(=O)(Cc1ccccc1)c1sc2ncccc2c1-c1ccc(Cl)cc1 [Compound 17] | 500 to 1500 | > 1500 |
| CCCCS(=O)(=O)c1sc2ncccc2c1-c1ccc(Cl)cc1 [Compound 11] | 500 to 1500 | > 1500 |
| O=S(=O)(c1ccc(-c2ccccc2)cc1)c1sc2ncccc2c1-c1ccc(Cl)cc1 [Compound 18] | > 1500 | > 1500 |
| N#Cc1cccc(S(=O)(=O)c2sc3ncccc3c2-c2cccc(Cl)c2)c1 [Compound 38] | < 500 | < 500 |
| COc1cccc(-c2c(S(=O)(=O)c3cccc(C#N)c3)sc3ncccc23)c1 [Compound 67] | < 500 | < 500 |
| N#Cc1cc(F)cc(S(=O)(=O)c2sc3nc(F)ccc3c2-c2ccc(Cl)cc2)c1 [Compound 90, 2-(3-Cyano-5-fluoro-benzenesulfonyl)-3-(4-chloro-phenyl)-6-fluoro-thieno[2,3-b]pyridine] | < 500 | > 1500 |
| Cc1noc(C)c1S(=O)(=O)c1sc2ncccc2c1-c1ccc(Cl)cc1 [Compound 14] | > 1500 | > 1500 |

Other lines, results leading:

| Ki [1] [nM] | Ki [2] [nM] | Structure (SMILES) |
| --- | --- | --- |
| < 500 | 500 to 1500 | O=S(=O)(c1ccc(Cl)c(Cl)c1)c1sc2ncccc2c1-c1ccc(Cl)cc1 [Compound 80] |
| < 500 | < 500 | N#Cc1cccc(S(=O)(=O)c2sc3ncccc3c2-c2ccc(Cl)cc2)c1 [Compound 9] |
| < 500 | > 1500 | N#Cc1ccc(S(=O)(=O)c2sc3ncccc3c2-c2ccc(Cl)cc2)cc1 [Compound 7] |
| < 500 | > 1500 | O=S(=O)(c1ccc(F)cc1)c1sc2ncccc2c1-c1ccc(Cl)cc1 [Compound 3] |
| < 500 | > 1500 | O=S(=O)(c1cccc(C(F)(F)F)c1)c1sc2ncccc2c1-c1ccc(Cl)cc1 [Compound 28] |
| > 1500 | > 1500 | CC(=O)Nc1ccc(S(=O)(=O)c2sc3ncccc3c2-c2ccc(Cl)cc2)cc1 [Compound 5] |
